Our source for the kcat and kcat/KM values is patent US10184115B2, “Mutated cellobiose dehydrogenase with increased substrate specificity” (DIRECTSENS GMBH, priority 2012, dated 2019).

Common to all, as to type: biochemical
Assay [1] concerns the target Myriococcum thermophilum cellobiose dehydrogenase (CDH, SEQ ID NO: 1) variant C312Y (Thermothelomyces myriococcoides, UniProt A9XK88, C312Y). The following applies: apparent, DCIP assay, pH 4.5, 30° C. Here is the method: (§1) Enzyme activity was assayed at 30° C. using either the DCIP (Karapetyan et al., 2005 Journal of Biotechnology 121: 34-48) or cytochrome c (Canevascini et al., 1991, European Journal of Biochemistry 198: 43-52) as electron acceptor. […] Stock solutions of carbohydrates used for kinetic measurements were prepared in the respective buffer and allowed to stand overnight for mutarotation, while stock solutions of electron acceptors were prepared in water and immediately used. The reaction stoichiometry is 1 for the two-electron acceptor DCIP (1 mole of DCIP reduced per mole of carbohydrate oxidized), but 2 for the one-electron acceptor cytochrome c. Kinetic constants were calculated by fitting the observed data to the Henri-Michaelis-Menten equation or to the adapted model for substrate inhibition using nonlinear least-squares regression and the program SigmaPlot (Systat Software, San Jose, Calif., USA).
(§2) The M. thermophilum CDH gene (EF492051, SEQ ID NO: 2) was codon-optimized for expression in Pichia pastoris according to the method described in Abad et al., 2010 and WO2010/097462 A1 (SEQ ID NO: 13) and synthesized by Gen-script (Piscataway, N.J., USA). cDNA encoding for M. thermophilum CDH was excised from the plasmid pMTSopt using EcoRI and NotI and cloned into the expression vector pPicZA along with its native signal sequence. Plasmid pCT1 was used as template for the amplification of the C. thermophilus CDH cDNA. Restriction enzymes BstBI and XbaI were used for cloning into the expression vector pPicZB along with its native signal sequence. Mutants of M. thermophilum CDH: C312Y, N313S, W316L, W316R, R622N, N721D, C312Y/W316L, C312Y/W316R and C. thermophiles CDH C310Y were prepared by a two step mutagenesis approach using PCR and DpnI (Li et al., 2002). […] SacI linearized expression plasmids were transformed into electrocompetent X-33 cells and transformants were selected on YPD Zeocin plates ([…]).
(§3) Recombinant wild-type CDH as well as variants were produced in 1 L baffled flasks. Precultures were grown overnight in 30 mL of YPD medium at 30° C. and 120 rpm. After approximately 18 hours the precultures were transferred into 1 L baffled flasks containing 200 mL BMGY medium without methanol. Induction with methanol was started immediately using a multichannel peristaltic pump (Minipuls Evolution, Gilson, Middleton, Wis., USA). Each flask was supplied eight times a day with methanol yielding a total concentration of 2% (v/v) methanol per day. Increase in activity was monitored using the DCIP and the cytochrome c enzyme assays. Cultivation was stopped at day five of methanol induction, cells removed by centrifugation (4000 rpm, 20 min) and the supernatant set to a final ammonium sulfate concentration of 20%.
(§4) The sample was loaded on a 20 mL PHE Sepharose FF column (HR26/20) equilibrated with 50 mM Na-acetate buffer pH 5.5 containing 20% ammonium sulfate. Proteins were eluted by increasing the concentration of the elution buffer (50 mM Na-acetate buffer pH 5.5) from 0 to 100% in 5 column volumes and fractions containing CDH activity were pooled. After diafiltration with a polyethersulfone flat-stack cross flow module with a cut-off of 10 kDa (Viva Flow 50, Sartorius, Göttingen, Germany) until conductivity of 5 mS cm^−1 in 20 mM Na-acetate pH 5.5 the samples were loaded on a 20 mL Q-Source column (HR26/20) equilibrated with a 20 mM Na-acetate buffer pH 5.5. CDH was eluted by increasing the concentration of the elution buffer (50 mM Na-acetate buffer pH 5.5 containing 0.5 M NaCl) from 0 to 100% in 50 column volumes. Fractions were tested for CDH activity and pooled according to the highest Reinheitszahl (RZ, calculated from the absorbance ratio 420 nm/280 nm). Purified enzymes were concentrated and diafiltered in 50 mM citrate buffer, pH 5.5, aliquoted and kept at 4° C. for further use.

The target in assay [2] is Myriococcum thermophilum cellobiose dehydrogenase (CDH, SEQ ID NO: 1) variant C312Y/W316L (Thermothelomyces myriococcoides, UniProt A9XK88, C312Y/W316L). The note with it: apparent, DCIP assay, pH 4.5, 30° C.; for kcat: ~ values only estimated by non linear regression. Here is the method:
as §1, §2, §3, §4

The target of assay [3] is Myriococcum thermophilum cellobiose dehydrogenase (CDH, SEQ ID NO: 1) variant C312Y/W316R (Thermothelomyces myriococcoides, UniProt A9XK88, C312Y/W316R). The following applies: apparent, DCIP assay, pH 4.5, 30° C.; for kcat: ~ values only estimated by non linear regression. Here is the method: as §1, §2, §3, §4
Chain of Myriococcum thermophilum cellobiose dehydrogenase (CDH, SEQ ID NO: 1) variant C312Y/W316R (A9XK88 entry or part of it C312Y/W316R): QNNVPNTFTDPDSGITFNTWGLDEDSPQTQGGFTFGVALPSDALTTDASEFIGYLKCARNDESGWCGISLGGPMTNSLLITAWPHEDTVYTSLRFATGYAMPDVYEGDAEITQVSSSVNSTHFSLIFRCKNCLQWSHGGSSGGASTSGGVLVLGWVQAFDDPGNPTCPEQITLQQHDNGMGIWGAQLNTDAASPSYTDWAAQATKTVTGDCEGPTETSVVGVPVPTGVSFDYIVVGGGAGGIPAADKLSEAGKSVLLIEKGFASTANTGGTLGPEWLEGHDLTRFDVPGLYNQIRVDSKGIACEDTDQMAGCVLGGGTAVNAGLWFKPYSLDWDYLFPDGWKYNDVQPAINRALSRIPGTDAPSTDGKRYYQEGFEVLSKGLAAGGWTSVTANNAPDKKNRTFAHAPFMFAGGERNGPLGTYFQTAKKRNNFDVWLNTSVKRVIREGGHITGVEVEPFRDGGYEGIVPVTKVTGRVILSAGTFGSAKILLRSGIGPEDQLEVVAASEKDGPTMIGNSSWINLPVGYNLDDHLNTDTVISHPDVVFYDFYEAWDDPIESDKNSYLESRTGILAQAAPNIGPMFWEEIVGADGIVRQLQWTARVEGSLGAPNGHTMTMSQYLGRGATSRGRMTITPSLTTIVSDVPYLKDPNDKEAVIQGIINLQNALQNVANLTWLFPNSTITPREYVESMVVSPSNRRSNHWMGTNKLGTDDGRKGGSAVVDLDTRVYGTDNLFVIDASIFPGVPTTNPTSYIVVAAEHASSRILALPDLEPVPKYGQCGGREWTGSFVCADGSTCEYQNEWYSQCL
Assay [4] concerns the target T1, Corynascus thermophilus CDH flavodehydrogenase domain, recombinant wild type (wtDH), amino acids 249-787 of SEQ ID NO: 7 (Thermothelomyces fergusii, UniProt E7D6B9).
T1 sequence (E7D6B9 249-787): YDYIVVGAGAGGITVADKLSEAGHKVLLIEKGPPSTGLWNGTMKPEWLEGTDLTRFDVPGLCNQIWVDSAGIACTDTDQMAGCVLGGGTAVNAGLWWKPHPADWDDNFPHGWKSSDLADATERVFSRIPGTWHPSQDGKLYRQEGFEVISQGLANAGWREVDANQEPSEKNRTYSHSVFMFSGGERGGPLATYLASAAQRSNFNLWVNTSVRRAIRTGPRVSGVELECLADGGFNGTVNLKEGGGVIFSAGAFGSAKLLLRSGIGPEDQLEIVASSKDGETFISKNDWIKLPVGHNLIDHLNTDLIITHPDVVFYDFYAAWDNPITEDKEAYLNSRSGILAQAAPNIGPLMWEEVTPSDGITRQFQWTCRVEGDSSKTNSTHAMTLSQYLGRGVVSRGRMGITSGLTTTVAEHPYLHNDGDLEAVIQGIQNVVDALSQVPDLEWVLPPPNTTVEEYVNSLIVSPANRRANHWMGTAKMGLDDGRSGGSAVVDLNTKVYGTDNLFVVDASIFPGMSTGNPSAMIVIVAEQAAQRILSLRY
The assay is described as follows: Steady-state kinetics, DCIP assay: C. thermophilus flavodehydrogenase domain wt. The following applies: apparent, pH 5.5, 30° C. The procedure: as §1
The construct was confirmed by sequencing.
as §3
as §4, with “Purified enzymes were concentrated and diafiltered in 50 mM citrate buffer, pH 5.5, aliquoted and kept at 4° C. for further use.” left out

Chain of Myriococcum thermophilum cellobiose dehydrogenase (CDH, SEQ ID NO: 1) variant C312Y/W316L (A9XK88 entry or part of it C312Y/W316L): as the sequence (A9XK88 entry or part of it C312Y/W316R) above, with R295L counted along it
Chain of Myriococcum thermophilum cellobiose dehydrogenase (CDH, SEQ ID NO: 1) variant C312Y (A9XK88 entry or part of it C312Y): as the sequence (A9XK88 entry or part of it C312Y/W316R) above, with R295W counted along it

With `OC[C@H]1OC(O)[C@H](O)[C@@H](O)[C@@H]1O` (stereo partly shown) [Glucose, glucose], the kcat was 9.6 s⁻¹ in assay [1], 6.4 s⁻¹ in assay [2], 4.3 s⁻¹ in assay [3] and 8.8 s⁻¹ in assay [4]. Further, the kcat/KM in assay [1] came out at 50 M⁻¹ s⁻¹; in assay [2], 13 M⁻¹ s⁻¹; in assay [3], 6.2 M⁻¹ s⁻¹; in assay [4], 79.1 M⁻¹ s⁻¹.

For `OC[C@H]1O[C@H](O[C@H]2[C@H](O)[C@@H](O)C(O)O[C@@H]2CO)[C@H](O)[C@@H](O)[C@@H]1O` (stereo partly shown) [Maltose, maltose], the kcat is 0.48 s⁻¹ in assay [1], around 0.92 s⁻¹ in assay [2], around 2.7 s⁻¹ in assay [3] and 0.86 s⁻¹ in assay [4]. In addition, the kcat/KM in assay [1] amounted to 3.5 M⁻¹ s⁻¹; in assay [2] it was 0.62 M⁻¹ s⁻¹; in assay [3], 0.17 M⁻¹ s⁻¹; in assay [4] it was 296 M⁻¹ s⁻¹.

As usually defined, the kcat is the maximal rate divided by the concentration of active sites. In general, kcat/KM refers to the second-order rate constant that governs catalysis at low substrate concentration.
